Experimental data as given in patent US20190070163A1, “ANTITUMOR AGENT” (TOCHIGI INSTITUTE OF CLINICAL PATHOLOGY, priority 2013, published 2019).

Tested on: spontaneously developed mammary gland tumors (adenocarcinoma and adenoma)
Assay: Therapeutic effect on tumor-bearing rats; light and electron microscopy of removed tumor tissues
Assay type: in vivo, Sprague-Dawley rats
Details: for apoptosis of smooth muscle cells in the tumor site: electron micrographs FIGS. 12 to 15; for degeneration of axons of peripheral nerve cells in the tumor site / degeneration of myelin sheaths of peripheral nerve cells in the tumor site: electron micrographs FIGS. 16 to 19; for stage of apoptosis of endothelial cells (irregular condensation and fragmentation of nuclei): staging per Ihara et al. 1998; for apoptosis in the tumor cells / inhibitory effect on the development and the growth of the tumor cells: tumor-bearing rats, oral daily (montelukast sodium 0.16, zafirlukast 1.33, pranlukast hydrate 7.5, zileuton 34.3 mg/kg), vs untreated
Description: Sprague-Dawley rats which had spontaneously developed a tumor during breeding (hereinafter referred to as tumor-bearing rats) were purchased from Charles River Japan, Inc., and used for experiments. Tumors observed were all mammary gland tumors (adenocarcinoma and adenoma). All of these were spontaneous tumors, and the rats were cancer-bearing animals having various conditions of tumorigenesis including carcinogenic factors in mammals including human.
Under ether anesthetization, tumor tissues were removed from tumor-bearing rats. The removed tumors were fixed, and thereafter samples for light microscopy (hematoxylin-eosin staining) and samples for electron microscopy (uranium-lead double staining) were prepared and observed.
To tumor-bearing rats, a leukotriene inhibitor containing montelukast sodium as an active ingredient (leukotriene receptor antagonist; trade name “Singulair Tablets”; manufactured by MSD K. K.) was orally administered for up to 7 days at a daily dose of 0.16 mg/kg body weight in terms of montelukast sodium. On Day 3 and Day 7, tumor tissues were removed under ether anesthetization. In the same manner as in Comparative Example 1, the removed tumors were fixed, and thereafter samples for light microscopy (hematoxylin-eosin staining) and samples for electron microscopy (uranium-lead double staining) were prepared and observed.
To tumor-bearing rats, a leukotriene inhibitor containing zafirlukast as an active ingredient (leukotriene receptor antagonist; trade name “Accolate”; manufactured by AstraZeneca K. K.) was orally administered for up to 7 days at a daily dose of 1.33 mg/kg body weight in terms of zafirlukast. On Day 3 and Day 7, tumor tissues were removed under ether anesthetization. In the same manner as in Comparative Example 1, the removed tumors were fixed, and thereafter samples for light microscopy (hematoxylin-eosin staining) and samples for electron microscopy (uranium-lead double staining) were prepared and observed.
To tumor-bearing rats, a leukotriene inhibitor containing pranlukast hydrate as an active ingredient (leukotriene receptor antagonist; trade name “Onon”; manufactured by Ono Pharmaceutical Co., Ltd.) was orally administered for up to 7 days at a daily dose of 7.5 mg/kg body weight in terms of pranlukast hydrate. On Day 3 and Day 7, tumor tissues were removed under ether anesthetization. In the same manner as in Comparative Example 1, the removed tumors were fixed, and thereafter samples for light microscopy (hematoxylin-eosin staining) and samples for electron microscopy (uranium-lead double staining) were prepared and observed.
To tumor-bearing rats, a leukotriene inhibitor containing zileuton as an active ingredient (leukotriene biosynthesis inhibitor; trade name “ZYFLO”; manufactured by Abbott Laboratories) was orally administered for up to 7 days at a daily dose of 34.3 mg/kg body weight in terms of zileuton. On Day 3 and Day 7, tumor tissues were removed under ether anesthetization. In the same manner as in Comparative Example 1, the removed tumors were fixed, and thereafter samples for light microscopy (hematoxylin-eosin staining) and samples for electron microscopy (uranium-lead double staining) were prepared and observed.

[1] = oral, dosing period 3 days, electron micrographs

| SMILES | effect to inhibit stromal hyperplasia (oral, dosing period 3 days) | apoptosis of smooth muscle cells in the tumor site (oral, dosing period 3 days) | degeneration of axons of peripheral nerve cells in the tumor site (oral, dosing period 3 days) | degeneration of myelin sheaths of peripheral nerve cells in the tumor site (oral, dosing period 3 days) | stage of apoptosis of endothelial cells (irregular condensation and fragmentation of nuclei) [1] | apoptosis in the tumor cells | inhibitory effect on the development and the growth of the tumor cells | apoptosis of fibroblasts in tumor tissue [1] |
| --- | --- | --- | --- | --- | --- | --- | --- | --- |
| CC(c1cc2ccccc2s1)N(O)C(N)=O (centres unmarked) [zileuton] | an effect to inhibit stromal hyperplasia was also seen | apoptosis of a smooth muscle cell | vacuolation and degeneration of an axon | degeneration of a myelin sheath | Stage II to III | apoptosis was already induced on as early as Day 3 | remarkable inhibitory effect | – |
| COc1cc(C(=O)NS(=O)(=O)c2ccccc2C)ccc1Cc1cn(C)c2ccc(NC(=O)OC3CCCC3)cc12 [zafirlukast] | – | apoptosis of a smooth muscle cell | vacuolation and degeneration of an axon | degeneration of a myelin sheath | Stage II to III | apoptosis was already induced on as early as Day 3 | remarkable inhibitory effect | apoptosis of fibroblast |
